# Molecular target: T1, mouse NPY5-receptor (mNPY5) (Mus musculus, UniProt O70342)
# T1 construct: The full-length cDNA encoding the mouse NPY5 (mNPY5) receptor was amplified from mouse brain cDNA; expressed in transfected cells; membranes used
# T1 sequence (O70342 1-466): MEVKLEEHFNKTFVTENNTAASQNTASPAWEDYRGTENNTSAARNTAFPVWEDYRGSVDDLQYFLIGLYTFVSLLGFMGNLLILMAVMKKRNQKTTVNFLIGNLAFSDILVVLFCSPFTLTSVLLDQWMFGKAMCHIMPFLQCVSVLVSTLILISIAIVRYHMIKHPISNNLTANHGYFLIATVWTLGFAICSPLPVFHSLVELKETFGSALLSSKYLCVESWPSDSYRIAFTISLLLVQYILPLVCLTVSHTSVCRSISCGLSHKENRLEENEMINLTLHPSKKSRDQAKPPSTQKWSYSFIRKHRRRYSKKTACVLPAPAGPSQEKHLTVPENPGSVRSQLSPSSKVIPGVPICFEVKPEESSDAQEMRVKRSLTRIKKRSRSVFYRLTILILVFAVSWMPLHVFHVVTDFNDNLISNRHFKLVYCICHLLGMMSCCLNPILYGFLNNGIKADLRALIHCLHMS
# Test: Radioligand competition binding
# Conditions: membranes of HEK293 cells expressing recombinant mNPY5; 100 pM [125I]labelled peptide YY; 1 h at 22° C.; read-out: NPY5-R (mouse) IC50
# Source text: The full-length cDNA encoding the mouse NPY5 (mNPY5) receptor was amplified from mouse brain cDNA using specific primers, designed based on the published sequence, and Pfu DNA-Polymerase. The amplification product was subcloned into the mammalian expression vector pcDNA3 using Eco RI and XhoI restriction sites. Positive clones were sequenced and one clone, encoding the published sequence was selected for generation of stable cell clones.
# Human embryonic kidney 293 (HEK293) cells were transfected with 10 μg mNPY5 DNA using the lipofectamine reagent. Two days after transfection, geneticin selection (1 mg/ml) was initiated and several stable clones were isolated. One clone was further used for pharmacological characterization.
# Human embryonic kidney 293 cells (HEK293), expressing recombinant mouse NPY5-receptor (mNPY5) were broken by three freeze/thawing cycles in hypotonic Tris buffer (5 mM, pH 7.4, 1 mM MgCl2), homogenized and centrifuged at 72,000×g for 15 min. The pellet was washed twice with 75 mM Tris buffer, pH 7.4, containing 25 mM MgCl2 and 250 mM sucrose, 0.1 mM phenylmethylsulfonylfluoride and 0.1 mM 1,10-pheneanthrolin, resuspended in the same buffer and stored in aliquots at −80° C. Protein was determined according to the method of Lowry using bovine serum albumine (BSA) as a standard. […]
row,IC50 [nM],Structure (SMILES)
1,0.74,"Cc1ccccc1C(=O)c1cnc(Nc2ccc(NS(=O)(=O)c3cccc(F)c3)cc2)s1 [Example 5, 3-Fluoro-N-{4-[5-(2-methyl-benzoyl)-thiazol-2-ylamino]-phenyl}-benzenesulfonamide]"
2,0.54,"Cc1ccccc1C(=O)c1cnc(Nc2cccc(NS(=O)(=O)c3cccs3)c2)s1 [Example 23, Thiophene-2-sulfonic acid {3-[5-(2-methyl-benzoyl)-thiazol-2-ylamino]-phenyl}-amide]"
3,0.99,"Cc1ccccc1C(=O)c1cnc(Nc2ccc(CNS(=O)(=O)c3cc(F)ccc3C)cc2)s1 [Example 37, 5-Fluoro-2-methyl-N-{4-[5-(2-methyl-benzoyl)-thiazol-2-ylamino]-benzyl}-benzenesulfonamide]"

# — patent publication US7250431B2, “Thiazole derivatives” (Hoffmann-La Roche Inc., priority 2003, dated 2007)
